Where a name gives a salt, the structure may show the parent alone.
Assay: Comparative stability, Formulation 3 (based on Evomela, SBE6.5-β-CD)
Assay type: physicochemical
Procedure: The stability of Compound (1c) either as the HCl salt or as the free base was compared to the stability of melphalan HCl and/or bendamustine HCl in various pharmaceutical formulations and at different concentrations and at temperatures of 0° C. or 25° C.
The stability of the compounds in the pharmaceutical formulations was determined at concentrations within the range from 0.4 mg/mL to 0.5 mg/mL, from 0.9 mg/mL to 1.1 mg/mL, and from 1.8 mg/mL to 2.1 mg/mL.
The amount of the active pharmaceutical ingredient (API) (Compound (1c), melphalan or bendamustine) in the pharmaceutical formulations at different times during storage was determined using HPLC/UV as described in detail for Example 4 and Example 5.
Evomela® is an injectable formulation of melphalan hydrochloride, 4-[bis(2-chloroethyl)amino]-L-phenylalanine hydrochloride, approved by the FDA. Evomela® is supplied as a sterile white to off-white lyophilized powder in a single-dose vial for intravenous use. Each vial containing 50 mg melphalan free base equivalent to 56 mg melphalan hydrochloride and 2,700 mg betadex sulfobutyl ether (SBE6.5-β-CD; sulfobutyl ether β-cyclodextrin sodium) sodium, NF. Normal saline solution (0.9% Sodium Chloride Injection, USP) (8.6 mL as directed) is used to reconstitute Evomela® to a total of 10 mL having a 5 mg/mL nominal concentration of melphalan. The required volume of Evomela® needed for a patient dose is withdrawn from the vial(s) and added to the appropriate volume of 0.9% Sodium Chloride Injection, USP, to a final nominal concentration of 0.45 mg/mL of melphalan. This solution is then infused via an injection port or central venous catheter.
A series of 12 mL glass vials each containing 5.5 mg (0.0165 mmol of Compound (1c) free base and 270 mg of SBE6.5-β-CD, Captisol®) were prepared as described in Example 4.
The cyclodextrin derivative/Compound (1c) free base guest-host inclusion complex was reconstituted by dissolving the guest-host inclusion complex in 0.86 mL of 0.9% saline to provide 1.0 mL of a solution having a nominal concentration of 5.5 mg/mL of Compound (1c) free base.
(§1) A 1.0 mL aliquot of this solution was diluted with 10.0 mL of 0.9% saline, and the pH adjusted with 5 μL of a saturated aqueous NaHCO3 solution to provide 11.0 mL of a clear, colorless solution having a nominal concentration of 0.50 mg/mL of Compound (1c) from Compound (1c) free base and a pH from 5.8 to 6.1.
as §1, with “4.5” for “10.0”, “5.5” for “11.0”, “1.0” for “0.50”, “of about” for “from 5.8 to”
as §1, with “1.75” for “10.0”, “2.75” for “11.0”, “2.0” for “0.50”, “of about” for “from 5.8 to”
A series of 12 mL glass vials each containing 6.1 mg (0.0165 mmol of Compound (1c) mono-hydrochloride salt (corresponding to 5.5 mg of Compound (1c) free base) and 270 mg of SBE6.5-β-CD, Captisol®) were prepared as described in Example 5.
The cyclodextrin derivative/Compound (1c) mono-HCl salt guest-host inclusion complex was reconstituted by dissolving the guest-host inclusion complex in 0.86 mL of 0.9% saline to provide 1.0 mL of a solution having a nominal concentration of 6.1 mg/mL of Compound (1c) mono-HCl salt (corresponding to a nominal concentration of 5.5 mg/mL of the Compound (1c) free base).
as §1, with “0.5” for “1.0”, “5.0” for “10.0”, “5.5” for “11.0”, “mono-hydrochloride” for “free base”, “5.3” for “5.8”, “5.5. […]” for “6.1.”

[1] = Formulation 3, 0° C., 0.5 hours, 0.4-0.5 mg/mL, pH 5.8-6.1 (melphalan), pH 5-6 (Compound (1c)•HCl)
[2] = Formulation 3, 0° C., 2.0 hours, 0.4-0.5 mg/mL, pH 5.8-6.1 (melphalan), pH 5-6 (Compound (1c)•HCl)

Structure (SMILES)	% API [1] [%]	% API (Formulation 3, 0° C., 0.5 hours, 0.9-1.1 mg/mL, pH 5-6) [%]	% API (Formulation 3, 0° C., 0.5 hours, 1.8-2.1 mg/mL, pH 5-6) [%]	% API [2] [%]	% API (Formulation 3, 0° C., 2.0 hours, 0.9-1.1 mg/mL, pH 5-6) [%]	% API (Formulation 3, 0° C., 2.0 hours, 1.8-2.1 mg/mL, pH 5-6) [%]	% API (Formulation 3, 25° C., 0.5 hours, 0.4-0.5 mg/mL, pH 5.8-6.1 (melphalan), pH 5-6 (Compound (1c)•HCl), mono hydrochloride salt) [%]	% API (Formulation 3, 25° C., 0.5 hours, 0.9-1.1 mg/mL, pH 5-6 (Compound (1c)•HCl), mono hydrochloride salt) [%]	% API (Formulation 3, 25° C., 0.5 hours, 1.8-2.1 mg/mL, pH 5-6 (Compound (1c)•HCl)) [%]	% API (Formulation 3, 25° C., 2.0 hours, 0.4-0.5 mg/mL, pH 5.8-6.1 (melphalan), pH 5-6 (Compound (1c)•HCl), mono hydrochloride salt) [%]	% API (Formulation 3, 25° C., 2.0 hours, 0.9-1.1 mg/mL, pH 5-6 (Compound (1c)•HCl), mono hydrochloride salt) [%]	% API (Formulation 3, 25° C., 2.0 hours, 1.8-2.1 mg/mL, pH 5-6 (Compound (1c)•HCl), mono hydrochloride salt) [%]	% API (Formulation 3, 25° C., 0.5 hours, 0.4-0.5 mg/mL, pH 5.8-6.1 (melphalan), pH 5-6 (Compound (1c)•HCl)) [%]	% API (Formulation 3, 25° C., 2.0 hours, 0.4-0.5 mg/mL, pH 5.8-6.1 (melphalan), pH 5-6 (Compound (1c)•HCl)) [%]
Cc1ccc(N(CCCl)CCCl)cc1C[C@H](N)CC(=O)O [Compound (1c)•HCl, (S)-3-amino-4-(5-(bis(2-chloroethyl)amino)-2-methylphenyl) butanoic acid mono hydrochloride salt]	97	97	100	97	91	99	97	97	100	97	91	99	–	–
Cl.N[C@@H](Cc1ccc(N(CCCl)CCCl)cc1)C(=O)O [Melphalan•HCl, 4-[bis(2-chloroethyl)amino]-L-phenylalanine hydrochloride, reference compound]	97	–	–	92	–	–	–	–	–	–	–	–	97	92

Source: patent US20250282895A1, “PHARMACEUTICAL COMPOSITIONS OF CHEMOTHERAPEUTIC AGENTS BASED ON BETA-S[…]-AMINO ACID DERIVATIVES” (priority 2021, published 2025)
